Reference: the NIST ThermoML archive (doi:10.1021/je100231g)
Several values for one entry are separate records, joined by “and”; a condition that tells them apart may be missing. Equal values may be shown once. Where a name gives a salt, the structure may show the parent alone.

Details: Liquid, Gas Saturation Method

CCCCOC(=O)CCC(=O)OCCCC [butanedioic acid, dibutyl ester]
Details | vapor or sublimation pressure [kPa]
313.3 K | 0.00132
316.2 K | 0.0017
318.3 K | 0.00205
320.2 K | 0.00248
323.2 K | 0.00325
325.2 K | 0.00383
328.2 K | 0.00489
330.2 K | 0.00577
333.2 K | 0.00743
335.4 K | 0.00877
338.2 K | 0.011
340.1 K | 0.0121
343.2 K | 0.0164
346.2 K | 0.0197
349.2 K | 0.0247
352.1 K | 0.0319
355.1 K | 0.0387
358.2 K | 0.0473

CCCOC(=O)CCC(=O)OCCC [butanedioic acid, dipropyl ester]
Details | vapor or sublimation pressure [kPa]
308.3 K | 0.00487
312.4 K | 0.00685
316.4 K | 0.00936
318.5 K | 0.0111
321.5 K | 0.0139
323.5 K | 0.0163
326.4 K | 0.0209
328.6 K | 0.0252
331.3 K | 0.0303
333.4 K | 0.0362
336.5 K | 0.0443
338.5 K | 0.0509
341.5 K | 0.0625
343.5 K | 0.0723

CCCCOC(=O)C(=O)OCCCC [di-n-butyl oxalate]
Details | vapor or sublimation pressure
291.4 K | 0.00087 kPa
293.4 K | 0.0011 kPa
295.7 K | 0.00143 kPa
298.8 K | 0.00182 kPa
300.4 K | 0.00209 kPa
302.3 K | 0.00249 kPa
302.8 K | 0.00276 kPa
303.3 K | 0.00283 kPa
305.2 K | 0.0034 kPa
305.3 K | 0.00334 kPa
308.2 K | 0.00446 kPa
308.3 K | 0.00433 kPa
308.4 K | 0.00448 kPa
311.3 K | 0.00565 kPa
312.3 K | 0.00624 kPa
313.2 K | 0.0066 kPa
314.3 K | 0.00737 kPa
315.5 K | 0.00855 kPa
317.4 K | 0.00937 kPa
317.8 K | 0.0105 kPa
318.2 K | 0.0105 kPa
319.9 K | 0.0124 kPa
320.2 K | 0.0115 kPa
322.5 K | 0.0149 kPa
323.2 K | 0.0159 kPa
323.4 K | 0.0151 kPa
325.3 K | 0.0176 kPa and 0.018 kPa
326.4 K | 0.0193 kPa
327.5 K | 0.0215 kPa
328.2 K | 0.0223 kPa
328.5 K | 0.0226 kPa
330.3 K | 0.0254 kPa
331.1 K | 0.0289 kPa
331.4 K | 0.0292 kPa
333.2 K | 0.0339 kPa
333.5 K | 0.0346 kPa and 0.0333 kPa
335.2 K | 0.0375 kPa
336.3 K | 0.0414 kPa
337 K | 0.0434 kPa
338.1 K | 0.0475 kPa
338.6 K | 0.0475 kPa
340.2 K | 0.0543 kPa
340.8 K | 0.0586 kPa
341.4 K | 0.0568 kPa
343.2 K | 0.0651 kPa
343.4 K | 0.0693 kPa
343.5 K | 0.0645 kPa
345.2 K | 0.0741 kPa
348.3 K | 0.0962 kPa
351.2 K | 0.1137 kPa
353.1 K | 0.1332 kPa
358.2 K | 0.1811 kPa

CCCOC(=O)C(=O)OCCC [di-n-propyl oxalate]
Details | vapor or sublimation pressure [kPa]
293.6 K | 0.00943
298.5 K | 0.0139
301.4 K | 0.0175
306.4 K | 0.0255
308.4 K | 0.0304
311.4 K | 0.0362
313.4 K | 0.0413
316.3 K | 0.052
318.6 K | 0.0626
321.4 K | 0.0741
323.3 K | 0.0903
326.3 K | 0.1085
328.3 K | 0.1248
330.4 K | 0.1423
333.5 K | 0.1801

CCCCOC(=O)CC(=O)OCCCC [dibutyl 1,3-propanedioate]
Details | vapor or sublimation pressure [kPa]
303.2 K | 0.00138
308.3 K | 0.00223
313.3 K | 0.00366
318.3 K | 0.00557
323.2 K | 0.00878
325.1 K | 0.0101
328.2 K | 0.0131
330.2 K | 0.0152
333.2 K | 0.0193
335.2 K | 0.0217
338.2 K | 0.0267
340.2 K | 0.0325
343.2 K | 0.0407
345.2 K | 0.0454
349.1 K | 0.0586
353.1 K | 0.0788
357.2 K | 0.1022
361.2 K | 0.1343
365.2 K | 0.1672
369.2 K | 0.2174

CCCCOC(=O)CCCCC(=O)OCCCC [dibutyl hexanedioate]
Details | vapor or sublimation pressure [kPa]
313.2 K | 0.00018
318.2 K | 0.0003
323.2 K | 0.00048
328.2 K | 0.00079
333.3 K | 0.00127
338.4 K | 0.00202
343.1 K | 0.00304
348.2 K | 0.00467
353.2 K | 0.00705
358.2 K | 0.0102
363.2 K | 0.0143
368.2 K | 0.0201
373.2 K | 0.0285

CCCCOC(=O)CCCC(=O)OCCCC [dibutyl pentanedioate]
Details | vapor or sublimation pressure
317.5 K | 0.00064 kPa
318.3 K | 0.0007 kPa
322.4 K | 0.00103 kPa
323.4 K | 0.00114 kPa and 0.00113 kPa
325.4 K | 0.00132 kPa
326.5 K | 0.00145 kPa
328.4 K | 0.00179 kPa and 0.00173 kPa
330.6 K | 0.0021 kPa
331.5 K | 0.00229 kPa
333.5 K | 0.00273 kPa
334.6 K | 0.00306 kPa
334.7 K | 0.00298 kPa
337.6 K | 0.00375 kPa
338.6 K | 0.00404 kPa
340.5 K | 0.00475 kPa
343.3 K | 0.006 kPa
346.6 K | 0.00782 kPa
349.6 K | 0.00973 kPa
350.3 K | 0.0103 kPa
352.5 K | 0.0121 kPa
354.7 K | 0.0145 kPa
357.5 K | 0.0177 kPa
360.6 K | 0.0213 kPa
363.4 K | 0.026 kPa
366.4 K | 0.0318 kPa
369.5 K | 0.0403 kPa

CCOC(=O)CC(=O)OCC [diethyl 1,3-propanedioate]
Details | vapor or sublimation pressure [kPa]
283.8 K | 0.00689
286.2 K | 0.00858
289.2 K | 0.0115
292.3 K | 0.015
295.2 K | 0.0193
298.2 K | 0.0251
301.3 K | 0.0321
304.2 K | 0.0405
304.7 K | 0.0428
307.3 K | 0.0513
310.2 K | 0.0646
313.3 K | 0.0814
316.3 K | 0.1005

CCOC(=O)CCC(=O)OCC [diethyl butanedioate]
Details | vapor or sublimation pressure
290.2 K | 0.00495 kPa
290.5 K | 0.00504 kPa
293.5 K | 0.00678 kPa
296.4 K | 0.00861 kPa
301.4 K | 0.0134 kPa
306.4 K | 0.0208 kPa
311.4 K | 0.0313 kPa
313.4 K | 0.035 kPa
316.4 K | 0.0455 kPa
318.4 K | 0.0503 kPa
321.4 K | 0.0661 kPa
323.5 K | 0.0777 kPa
326.5 K | 0.0941 kPa and 0.0963 kPa
328.5 K | 0.1125 kPa
331.4 K | 0.133 kPa
331.6 K | 0.1351 kPa
333.6 K | 0.1517 kPa
336.5 K | 0.1864 kPa
339.4 K | 0.2221 kPa
342.4 K | 0.2658 kPa
345.5 K | 0.3425 kPa

CCOC(=O)C(=O)OCC [diethyl ethanedioate]
Details | vapor or sublimation pressure [kPa]
283.6 K | 0.0164
288.5 K | 0.0256
293.4 K | 0.0392
298.3 K | 0.0571
303.3 K | 0.0814
308.4 K | 0.1254
311.3 K | 0.1509
313.5 K | 0.175
316.4 K | 0.2075
318.3 K | 0.2434
321.4 K | 0.2972
325.4 K | 0.3834
329.5 K | 0.4832
333.5 K | 0.6275

CCOC(=O)CCCC(=O)OCC [diethyl glutarate]
Details | vapor or sublimation pressure [kPa]
298.3 K | 0.00352
303.4 K | 0.00575
308.6 K | 0.00877
311.2 K | 0.0108
313.5 K | 0.0134
316.2 K | 0.0161
318.2 K | 0.0185
318.5 K | 0.02
322.2 K | 0.0254
323.3 K | 0.0277
328.2 K | 0.0405
333.2 K | 0.0601
338.2 K | 0.0874
343.2 K | 0.1236
347.9 K | 0.1725

CCOC(=O)CCCCC(=O)OCC [diethyl hexanedioate]
Details | vapor or sublimation pressure [kPa]
303.5 K | 0.0022
308.2 K | 0.00343
313.3 K | 0.00523
318.2 K | 0.00793
323.1 K | 0.0118
328.2 K | 0.0185
329.6 K | 0.0209
333.2 K | 0.0273
335.2 K | 0.0323
338.2 K | 0.039
340.2 K | 0.0462
343.2 K | 0.0561
346.2 K | 0.0698
349.1 K | 0.0851
352.2 K | 0.1061

CCCOC(=O)CC(=O)OCCC [dipropyl 1,3-propanedioate]
Details | vapor or sublimation pressure [kPa]
293.3 K | 0.00356
298.3 K | 0.00582
299.4 K | 0.00652
303.2 K | 0.00897
307.3 K | 0.0129
308.2 K | 0.0135
311.3 K | 0.0178
313.3 K | 0.0199
315.3 K | 0.0245
318.5 K | 0.0296
319.4 K | 0.0332
323.4 K | 0.0426
328.5 K | 0.0622
333.5 K | 0.089
336.4 K | 0.1095
338.5 K | 0.13

CCCOC(=O)CCCCC(=O)OCCC [dipropyl hexanedioate]
Details | vapor or sublimation pressure [kPa]
318.8 K | 0.00173
321.7 K | 0.00222
323.5 K | 0.0026
327.4 K | 0.00367
333.2 K | 0.00602
336.1 K | 0.00765
339.1 K | 0.00972
342.1 K | 0.0122
345.5 K | 0.0152
348.3 K | 0.0196
351.5 K | 0.0253
354.2 K | 0.0306
357.1 K | 0.0373
361.2 K | 0.0485
365.3 K | 0.0639

CCCOC(=O)CCCC(=O)OCCC [pentanedioic acid, dipropyl ester]
Details | vapor or sublimation pressure [kPa]
313.3 K | 0.00276
316.4 K | 0.00359
318.5 K | 0.00444
319.4 K | 0.00478
322.5 K | 0.00609
323.5 K | 0.00637
325.4 K | 0.00778
328.5 K | 0.01
329.5 K | 0.0109
331.4 K | 0.0128
333.6 K | 0.0149
336.4 K | 0.0184
338.5 K | 0.022
341.4 K | 0.0271
343.6 K | 0.031
346.4 K | 0.0385
348.4 K | 0.0432
350.5 K | 0.0504
353.5 K | 0.0628
